Assays:
[1] = Absorption/fluorescence spectrum measurement; type: physicochemical; details: for Absorption maximum (nm) / Fluorescence maximum (nm) / Quantum yield: 200 mM phosphate buffer (pH 7.4); for Fluorescence under physiological conditions: as compared to fluorescein
Protocol: The absorption spectrum was measured using UV-2450 (SIMADZU), and the fluorescence spectrum was measured using F-7000 (HITACHI).
FIG. 9 and FIG. 10 illustrate the results of the absorption/fluorescence spectrum measurement of 2Me5GluAF-TG (Compound 32). […] The absorption spectrum was measured using UV-2450 (SIMADZU), and the fluorescence spectrum was measured using F-7000 (HITACHI).

[2] = biological target: T1, PSMA (Homo sapiens, UniProt Q04609); assay: Enzyme assay with PSMA (Example 2), fluorescence spectrum and Michaelis-Menten plot; type: biochemical; details: for Fluorescence rise due to enzymatic reaction with PSMA: 10 μM probe, 0.44 μg PSMA, 37° C., 15 hours
Protocol: A change in the fluorescence spectrum due to the enzymatic reaction was measured as follows. The reactivity of 6-fluAFGlu to PSMA was evaluated by creating a Michaelis-Menten plot. • (1) Two solutions prepared by dissolving 10 μM probe in 200 μL of each assay buffer were provided. • (Assay buffer: 50 mM HEPES, 100 mM NaCl, pH 7.5) • (2) 0.44 μg of PSMA was added to each and incubated at 37° C. for 15 hours. For one of the solutions, a PSMA specific inhibitor 2-(Phosphonomethyl)-pentandioic acid (2-PMPA) (final concentration 10 μM) was also added at the same time and incubated at 37° C. for 15 hours. • (3) Each solution after the incubation in (2) was diluted to 2800 μL with 200 mM Na-Pi buffer, and the fluorescence spectrum was measured.
FIG. 1 illustrates the fluorescence spectrum of 5-fluAFGlu and 6-fluAFGlu after addition of PSMA and an inhibitor (2-PMPA, 10 μM) (S/N to 417 at 516 nm).

[3] = tested on: PC3 cell lysate (PSMA non-expressing prostate cancer cell); assay: Cell lysate assay, PC3; type: biochemical; details: probe 10 μM, 37° C.
Protocol: (§1) A PSMA specific inhibitor 2-PMPA (10 μM) was added to one of LNCaP cell lysate samples at the same time, and measurement was performed. • (2) The obtained fluorescence intensity of each lysate was normalized based on 0 minutes being set to 1, and then plot was performed with the incubation time on the horizontal axis.
(§2) A solution (20 μM, 100 μL) of 2Me5GluAF-TG (Compound 32) and a cell lysate (0.36 mg/mL, 100 μL) were reacted in TBS-T buffer at 37° C., and the fluorescence intensity was measured every 30 minutes. The measurement procedure is as described in Example 3.
(§3) Ex/em: 485/535 nm, n=3, probe final concentration: 10 μM, inhibitor (2-PMPA) concentration: 10 μM

[4] = biological target: T1, PSMA; assay: Reactivity with PSMA purified enzyme (Example 6); type: biochemical; details: apparent dynamic parameter, Table 4
[5] = tested on: LNCaP (PSMA expressing cell); assay: Live cell assay on 96-well plate (plate reader); type: cell-based
Protocol: LNCaP as a PSMA expressing cell and PC3 as a PSMA non-expressing cell were cultured on a 96-well plate, a 10 μM aqueous solution of 6-fluAFGlu (Compound 25) was added thereto, and the cells were observed over time.

[6] = tested on: LNCaP cell lysate (PSMA expressing prostate cancer cell); assay: Cell lysate assay, LNCaP; type: biochemical; details: probe 10 μM, 37° C.
Protocol: as §1, §2, §3

[7] = biological target: T2, carboxypeptidase A (CPA) (Homo sapiens, UniProt P15085); assay: Enzyme assay with CPA; type: biochemical
T2 sequence (P15085 111-419): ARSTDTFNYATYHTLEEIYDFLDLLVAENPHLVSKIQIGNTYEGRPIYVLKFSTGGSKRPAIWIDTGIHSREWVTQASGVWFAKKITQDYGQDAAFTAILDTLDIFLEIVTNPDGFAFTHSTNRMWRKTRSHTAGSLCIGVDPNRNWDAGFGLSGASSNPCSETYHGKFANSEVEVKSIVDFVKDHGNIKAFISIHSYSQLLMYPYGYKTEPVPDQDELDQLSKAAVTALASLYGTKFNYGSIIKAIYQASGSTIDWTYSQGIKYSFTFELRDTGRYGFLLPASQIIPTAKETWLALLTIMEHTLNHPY
Protocol: • (1) First to third solutions prepared by dissolving 10 μM probe in 600 μL of each assay buffer were provided. • (Assay buffer: Tris-buffered saline (TBS)) (2) 2 μg of CPA was activated with 18 μL of 5 ng/mL trypsine solution for 1 hour • (3) 9 μL of the solution in (2) was added to the solution in (1), and the mixture was incubated at 37° C. for 5 hours. For one of the solutions, a CPA specific inhibitor; potato carboxypeptidase inhibitor (final concentration 10 μg/mL) was also added at the same time and incubated at 37° C. for 5 hours. • (4) 200 μL of each solution after the incubation in (3) was diluted to 2800 μL with 200 mM Na-Pi […], and the fluorescence spectrum was measured.

[8] = tested on: Cc1ccc(/N=N/C(=O)N[C@@H](CCC(=O)O)C(=O)O)cc1-c1c2ccc(=O)cc-2oc2cc(O)ccc12; assay: Reactivity with PSMA purified enzyme (Example 6); type: biochemical, human; details: other: apparent dynamic parameter, PSMA added to various probe concentrations, Table 4; 37.0 °C
[9] = apparent dynamic parameter with PSMA, Table 2

T1 sequence (Q04609 whole entry): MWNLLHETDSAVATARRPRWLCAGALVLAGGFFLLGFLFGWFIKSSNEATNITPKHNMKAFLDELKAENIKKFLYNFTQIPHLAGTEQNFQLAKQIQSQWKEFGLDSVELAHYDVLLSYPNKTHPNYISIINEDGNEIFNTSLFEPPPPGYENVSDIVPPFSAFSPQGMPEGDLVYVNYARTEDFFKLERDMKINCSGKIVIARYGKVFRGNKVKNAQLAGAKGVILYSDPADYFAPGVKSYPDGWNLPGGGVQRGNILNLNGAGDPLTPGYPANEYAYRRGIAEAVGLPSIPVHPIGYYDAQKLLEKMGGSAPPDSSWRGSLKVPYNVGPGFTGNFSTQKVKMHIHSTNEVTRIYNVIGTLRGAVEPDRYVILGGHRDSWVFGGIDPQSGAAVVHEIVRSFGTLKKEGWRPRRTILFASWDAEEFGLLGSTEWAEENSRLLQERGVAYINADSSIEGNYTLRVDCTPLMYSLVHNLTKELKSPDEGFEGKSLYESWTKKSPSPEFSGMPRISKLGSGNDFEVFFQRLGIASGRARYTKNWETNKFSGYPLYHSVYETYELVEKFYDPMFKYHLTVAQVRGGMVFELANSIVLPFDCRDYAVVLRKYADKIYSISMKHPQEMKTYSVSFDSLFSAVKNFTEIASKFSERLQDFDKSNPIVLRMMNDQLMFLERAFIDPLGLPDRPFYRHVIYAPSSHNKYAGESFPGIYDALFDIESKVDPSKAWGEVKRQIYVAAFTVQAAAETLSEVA

| Compound | Absorption maximum (nm) [1] [nm] | Fluorescence maximum (nm) [1] [nm] | Quantum yield [1] | Fluorescence under physiological conditions [1] | Fluorescence rise due to enzymatic reaction with PSMA [2] | Increase in fluorescence in PC3 cell lysate [3] | Km ([4]; PSMA added to various probe concentrations) [µM] | kcat [4] [s⁻¹] | Km [2, 9] [nM] | kcat [2, 9] [s⁻¹] | S/N of fluorescence spectrum after addition of PSMA and inhibitor ([2]; at 516 nm, inhibitor 2-PMPA 10 μM) | Increase in fluorescence intensity in live LNCaP cells ([5]; 10 μM probe in TBS, compared to PC3) | Increase in fluorescence in live LNCaP cells with inhibitor ([5]; 10 μM probe, 2-PMPA 10 μM) | Increase in fluorescence in LNCaP cell lysate with inhibitor ([6]; 2-PMPA 10 μM) | Increase in fluorescence in LNCaP cell lysate [6] | Fluorescence rise due to enzymatic reaction with CPA ([7]; 10 μM probe, 37° C., 5 hours) | S/N of fluorescence spectrum after addition of CPA1 and inhibitor ([7]; at 517 nm, potato carboxypeptidase inhibitor, 10 μM) | Km [8] [µM] | kcat [8] [s⁻¹] | kcat/Km [8] [M⁻¹ s⁻¹] |
| --- | --- | --- | --- | --- | --- | --- | --- | --- | --- | --- | --- | --- | --- | --- | --- | --- | --- | --- | --- | --- |
| O=C(O)CCC(NC(=O)N=Nc1ccc2c(c1)C(=O)OC21c2ccc(O)cc2Oc2cc(O)ccc21)C(=O)O (centres unmarked) [Compound 5-fluAFGlu] | 494 | 521 | 0.003 | almost no fluorescencence | only in 6-fluAFGlu | – | – | – | – | – | – | – | – | – | – | – | – | – | – | – |
| O=C(O)CCC(NC(=O)N=Nc1ccc(C(=O)O)c(-c2c3ccc(=O)cc-3oc3cc(O)ccc23)c1)C(=O)O (centres unmarked) [Compound 6-fluAFGlu] | 494 | 526 | 0.002 | almost no fluorescencence | a fluorescence rise due to an enzymatic reaction was observed | almost no increase in fluorescence was observed | 5 | 0.001 | 2400 | 0.00055 | ~417 | a significant increase in fluorescence intensity was observed in LNCaP compared to PC3 | significantly suppressed | almost no increase in fluorescence was observed | a significant increase in fluorescence was observed | – | – | – | – | – |
| O=C(N=Nc1ccc(C(=O)O)c(-c2c3ccc(=O)cc-3oc3cc(O)ccc23)c1)NC(Cc1ccccc1)C(=O)O (centres unmarked) [Compound 6-fluAFPhe] | 494 | 519 | 0.025 | almost no fluorescencence | – | – | – | – | – | – | – | – | – | – | – | the fluorescence rise due to the enzymatic reaction was observed | ~13 | – | – | – |
| recombinant human PSMA (Homo sapiens) | – | – | – | – | – | – | – | – | – | – | – | – | – | – | – | – | – | 4.3 | 0.066 | 15300 |

— patent US12055546B2, “Fluorescent probe for detecting carboxypeptidase activity” (THE UNIVERSITY OF TOKYO, priority 2018, dated 2024)
